Measurements: patent US9242977B2, “Trk-inhibiting compound” (ONO PHARMACEUTICAL CO., LTD., priority 2012, dated 2016)

Assays:
[1] = molecular target: T1, TrkA (Homo sapiens (Human), UniProt P04629); test: Measurement of TrkA enzyme-inhibiting activity (LanthaScreen TR-FRET kinase assay); format: biochemical; settings: final ATP 150 μM, read-out: TrkA inhibitory activity (IC50; μM)
Method: TrkA-inhibiting activity was measured according to the following method using LanthaScreen™ kinase assay reagents (Invitrogen; Fluorescein-Poly GT, LanthaScreen™ Tb-PY20 and TR-FRET Dilution Buffer), TrkA (Invitrogen), ATP (Sigma-Aldrich), a kinase reaction buffer (50 mM HEPES buffer (Sigma-Aldrich) (pH 7.5) containing 0.01% Brij35 (Sigma-Aldrich), 10 mM MgCl2 (Sigma-Aldrich) and 1 mM EGTA (Sigma-Aldrich)) and 0.5 M EDTA (pH 8.0) (Invitrogen).
The present compound was dissolved in dimethylsulfoxide (hereinafter abbreviated as DMSO) to prepare a 10 mM solution. The test compound at 10 mM was distributed into a 96-well plate and serially diluted with DMSO with the geometrical ratio of 3. The serial dilutions (DMSO solutions) were diluted with the kinase reaction buffer to 20-fold to prepare solutions of the present compound with 5-times concentrations (DMSO concentration: 5%). TrkA was diluted with the kinase reaction buffer to prepare a solution at 38.5 ng/mL (enzyme solution). Adenosine triphosphate (hereinafter abbreviated as ATP) was preliminarily diluted in distilled water to prepare a 10 mM solution which was then divided into containers and stored at −20° C. The 10 mM ATP solution and Fluorescein-Poly GT were diluted in the kinase reaction buffer to prepare a solution containing […] of ATP and 500 nM of Fluorescein-Poly GT (ATP-substrate solution). EDTA (0.5 M; pH 8.0) and LanthaScreen™ Tb-PY20 were diluted in the TR-FRET Dilution Buffer to prepare a solution containing 20 mM of EDTA and 4 nM of LanthaScreen™ Tb-PY20 (detection buffer).
The solutions of the present compound (5 μL/well) and the enzyme solution (10 μL/well) were added to a 96-half well assay plate and the plate was shaken at room temperature for 10 minutes on a plate shaker (IKA™ MTS2/4 digital microplate, IKA Japan K.K.). As a control and a blank, the kinase reaction buffer containing 5% DMSO (5 μL/well) was added in place of the solution of the present compound. As a blank, the kinase reaction buffer (10 μL/well) was added in the place of the enzyme solution. The ATP-substrate solution (10 μL/well) was then added to the plate to initiate kinase reaction and the plate was shaken in the dark at room temperature for 1 hour on the plate shaker (final concentration of TrkA: 15.4 ng/mL, final concentration of the substrate: 200 nM and final concentration of ATP: 150 μM). Kinase reaction was terminated by adding the detection buffer (25 μL/well) to the plate and the plate was shaken in the dark at room temperature for 30 minutes on the plate shaker. On an Analyst GT (Molecular Devices Japan, K.K.) the wells were irradiated with excitation light at 340 nm and the fluorescence intensities at 520 nm and 495 nm were measured. The fluorescence intensity at 520 nm for each well was divided by the fluorescence intensity at 495 nm to calculate the time resolved fluorescence resonance energy transfer (TR-FRET) ratio.
The inhibition rate (%) of the present compound was calculated according to the following Equation 1: Inhibition rate (%)={1−(AX−AB)/(AC−AB)×100 Equation 1
wherein AX: the TR-FRET ratio when the present compound is added;
AB: the TR-FRET of the blank; and
AC: the TR-FRET of the control.
The value for 50% inhibition by the present compound (IC50 value) was calculated from the inhibition curve based on the inhibition rate of the present compound at respective concentrations.

[2] = molecular target: T1, TrkA; test: TrkA kinase-inhibiting activity using human TrkA expressing cells (CellSenser TrkA-NFAT-bla CHO-K1, NGF-stimulated reporter assay); format: cell-based; settings: CHO-K1 cells expressing human TrkA and NFAT-bla; NGF 50 ng/ml; read-out: TrkA inhibitory activity (IC50; μM)
Method: TrkA kinase-inhibiting activity in cell systems was measured using CHO-K1 cells expressing human TrkA and NFAT-bla (CellSenser™ TrkA-NFAT-bla CHO-K1 cells, Invitrogen).
On the day before the assay, CellSenser™ TrkA-NFAT-bla CHO-K1 cells were suspended in an assay medium (Opti-MEM1 Reduced Serum Medium (Invitrogen) containing 0.5% dialysed fetal bovine serum (Invitrogen), 0.1 mM nonessential amino acids (Invitrogen), 1 mM sodium pyruvate (Invitrogen) and antibiotics (100 U/mL penicillin and 100 μg/mL streptomycin (Invitrogen)) and plated at a density of 2.4×10^4 cells/40 μL/well in a 96-well clear bottom plate (Corning, Catalogue No.: 3882). In some wells were added only the assay medium at 40 μL/well (Cell-free). On the day of the assay, 10 mM of the present compound (DMSO solution) was distributed in a 96-well plate (Costar, Catalogue No.: 3363) and serially diluted with DMSO with the geometrical ratio of 3. The serial dilutions were diluted with the assay medium to 100-fold to prepare a solution of the present compound with a 10-times concentration (DMSO concentration: 1%). To the plate where cells were plated was added the present compound at 5 μL/well and the plate was incubated in a CO2 incubator with 5% CO2, 95% Air at 37° C. for 30 minutes. For a control and a blank, the assay medium containing 1% DMSO was added at 5 μL/well in place of the solution of the present compound. Subsequently the assay medium containing NGF (Mouse 2.5s, Natural, Invitrogen) was added to the plate at 5 µL/well (final concentration of NGF: 50 ng/ml) and the plate was incubated in a CO2 incubator with 5% CO2, 95% Air at 37° C. for 5 hours. For a group of blanks, the assay medium was added in place of NGF at 5 μL/well. A reporter assay detection reagent (10 μL/well) was added to the plate and the plate was then incubated in the dark at room temperature for 120 minutes. The reporter assay detection reagent was prepared from LiveBLAzer™-FRET B/G Loading Kit (Invitrogen). On an Analyst GT (Molecular Devices Japan, K.K.) the wells were irradiated with excitation light at 405 nm and the fluorescence intensities at 460 nm and 530 nm were measured. The time resolved fluorescence resonance energy transfer (TR-FRET) ratio of each well was calculated according to the following Equation 2. TR-FRET Ratio=(A460X−A460F)/(A530X−A530F) Equation 2
wherein A460X: the fluorescence intensity at 460 nm of the present compound, control or blank;
A460F: the fluorescence intensity at 460 nm of the Cell-free;
A530X: the fluorescence intensity at 530 nm of the present compound, control or blank; and
A530F: the fluorescence intensity at 530 nm of the Cell-free. […]
The IC50 value of the present compound was calculated from the inhibition curve based on the inhibition rate of the present compound at respective concentrations.

T1 sequence (P04629 33-796): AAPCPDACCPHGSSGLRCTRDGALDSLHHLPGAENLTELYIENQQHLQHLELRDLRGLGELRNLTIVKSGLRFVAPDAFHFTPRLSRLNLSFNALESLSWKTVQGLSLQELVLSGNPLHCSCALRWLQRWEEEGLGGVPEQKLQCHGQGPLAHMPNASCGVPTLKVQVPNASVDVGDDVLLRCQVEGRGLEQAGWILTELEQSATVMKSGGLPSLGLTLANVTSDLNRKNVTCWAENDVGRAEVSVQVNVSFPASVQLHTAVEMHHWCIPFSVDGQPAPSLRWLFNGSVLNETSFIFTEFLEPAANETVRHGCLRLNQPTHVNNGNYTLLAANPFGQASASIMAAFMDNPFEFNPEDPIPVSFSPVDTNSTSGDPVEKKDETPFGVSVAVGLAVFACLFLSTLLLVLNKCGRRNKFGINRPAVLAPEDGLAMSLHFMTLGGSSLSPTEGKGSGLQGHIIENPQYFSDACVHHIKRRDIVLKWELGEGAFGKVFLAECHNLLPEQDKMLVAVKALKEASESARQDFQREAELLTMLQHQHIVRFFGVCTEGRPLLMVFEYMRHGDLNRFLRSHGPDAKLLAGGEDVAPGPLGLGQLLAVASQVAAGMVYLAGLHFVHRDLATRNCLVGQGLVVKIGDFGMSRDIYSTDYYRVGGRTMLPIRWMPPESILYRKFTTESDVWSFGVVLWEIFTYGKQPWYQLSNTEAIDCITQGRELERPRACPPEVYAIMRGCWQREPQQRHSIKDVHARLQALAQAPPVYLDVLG

| SMILES | IC50 [1] [µM] | IC50 [2] [µM] |
| --- | --- | --- |
| O=C(Nc1cnc(Oc2ccc(-c3cnc(N4CCCCC4=O)s3)cc2)nc1)Nc1cc(C(F)(F)F)cnc1-c1ccc(C(F)(F)F)nc1 [Example 9, 1-[5,6′-bis(trifluoromethyl)-2,3′-bipyridin-3-yl]-3-(2-{4-[2-(2-oxo-1-piperidinyl)-1,3-thiazol-5-yl]phenoxy}-5-pyrimidinyl)urea] | 0.16 | 0.093 |
| O=C(Nc1cnc(Oc2ccc(-c3cnc(N4CCCC4=O)s3)cc2)nc1)Nc1cc(C(F)(F)F)cnc1-c1ccc(C(F)(F)F)nc1 [Example 50, 1-[5,6′-bis(trifluoromethyl)-2,3′-bipyridin-3-yl]-3-(2-{4-[2-(2-oxo-1-pyrrolidinyl)-1,3-thiazol-5-yl]phenoxy}-5-pyrimidinyl)urea] | 0.04 | 0.012 |
| Cc1ccc(-c2ncc(C(F)(F)F)cc2NC(=O)Nc2cnc(Oc3ccc(-c4cnc(N5CCCCCC5=O)s4)cc3)nc2)cc1C [Example 59, 1-[2-(3,4-dimethylphenyl)-5-(trifluoromethyl)-3-pyridinyl]-3-(2-{4-[2-(2-oxo-1-azepanyl)-1,3-thiazol-5-yl]phenoxy}-5-pyrimidinyl)urea] | 0.19 | 0.07 |
| Cc1ccc(-n2nc(C(C)(C)C)cc2NC(=O)Nc2cnc(Oc3ccc(-c4cnc(N5CCCC5=O)s4)cc3)nc2)cc1C [Example 65-1, 1-[1-(3,4-dimethylphenyl)-3-(2-methyl-2-propanyl)-1H-pyrazol-5-yl]-3-(2-{4-[2-(2-oxo-1-pyrrolidinyl)-1,3-thiazol-5-yl]phenoxy}-5-pyrimidinyl)urea] | 0.08 | 0.002 |
| CC(C)(C)c1cc(NC(=O)Nc2cnc(Oc3ccc(-c4cnc(N5CCCC5=O)s4)cc3)nc2)n(-c2ccc3c(c2)CCO3)n1 [Example 66-19, 1-[1-(2,3-dihydro-1-benzofuran-5-yl)-3-(2-methyl-2-propanyl)-1H-pyrazol-5-yl]-3-(2-{4-[2-(2-oxo-1-pyrrolidinyl)-1,3-thiazol-5-yl]phenoxy}-5-pyrimidinyl)urea] | 0.02 | 0.004 |
| COC(=O)c1cccc(-n2nc(C(C)(C)C)cc2NC(=O)Nc2cnc(Oc3ccc(-c4cnc(N5CCCC5=O)s4)cc3)nc2)c1 [Example 66-27, Methyl 3-[3-(2-methyl-2-propanyl)-5-{[(2-{4-[2-(2-oxo-1-pyrrolidinyl)-1,3-thiazol-5-yl]phenoxy}-5-pyrimidinyl)carbamoyl]amino}-1H-pyrazol-1-yl]benzoate] | 0.13 | 0.01 |
| CC(=O)Nc1ccc(-n2nc(C(C)(C)C)cc2NC(=O)Nc2cnc(Oc3ccc(-c4cnc(N5CCCC5=O)s4)cc3)nc2)cc1 [Example 66-28, N-{4-[3-(2-methyl-2-propanyl)-5-{[(2-{4-[2-(2-oxo-1-pyrrolidinyl)-1,3-thiazol-5-yl]phenoxy}-5-pyrimidinyl)carbamoyl]amino}-1H-pyrazol-1-yl]phenyl}acetamide] | 0.08 | 0.014 |
| CC(C)(C)c1cc(NC(=O)Nc2cnc(Oc3ccc(-c4cnc(N5CCCC5=O)s4)cc3)nc2)n(-c2ccc(S(N)(=O)=O)cc2)n1 [Example 66-72, 4-[3-(2-methyl-2-propanyl)-5-{[(2-{4-[2-(2-oxo-1-pyrrolidinyl)-1,3-thiazol-5-yl]phenoxy}-5-pyrimidinyl)carbamoyl]amino}-1H-pyrazol-1-yl]benzenesulfonamide] | 0.05 | 0.032 |
| Cn1ncc2cc(-n3nc(C(C)(C)C)cc3NC(=O)Nc3cnc(Oc4ccc(-c5cnc(N6CCCC6=O)s5)cc4)nc3)ccc21 [Example 71, 1-[1-(1-methyl-1H-indazol-5-yl)-3-(2-methyl-2-propanyl)-1H-pyrazol-5-yl]-3-(2-{4-[2-(2-oxo-1-pyrrolidinyl)-1,3-thiazol-5-yl]phenoxy}-5-pyrimidinyl)urea] | 0.03 | 0.002 |
| Cc1ccccc1-n1nc(C(F)(F)F)cc1NC(=O)Nc1cnc(Oc2ccc(-c3cnc(N4CCCC4=O)s3)cc2)nc1 [Example 72-1, 1-[1-(2-methylphenyl)-3-(trifluoromethyl)-1H-pyrazol-5-yl]-3-(2-{4-[2-(2-oxo-1-pyrrolidinyl)-1,3-thiazol-5-yl]phenoxy}-5-pyrimidinyl)urea] | 0.05 | 0.011 |
| Cc1ccccc1-n1nc(C(C)(F)F)cc1NC(=O)Nc1cnc(Oc2ccc(-c3cnc(N4CCCC4=O)s3)cc2)nc1 [Example 72-3, 1-[3-(1,1-difluoroethyl)-1-(2-methylphenyl)-1H-pyrazol-5-yl]-3-(2-{4-[2-(2-oxo-1-pyrrolidinyl)-1,3-thiazol-5-yl]phenoxy}-5-pyrimidinyl)urea] | 0.06 | 0.018 |
| O=C(Nc1cnc(Oc2ccc(-c3cnc(N4CCCC4=O)s3)cc2)nc1)Nc1cc(C2CC2)nn1-c1ccccc1 [Example 72-7, 1-(3-cyclopropyl-1-phenyl-1H-pyrazol-5-yl)-3-(2-{4-[2-(2-oxo-1-pyrrolidinyl)-1,3-thiazol-5-yl]phenoxy}-5-pyrimidinyl)urea] | 0.03 | 0.033 |
| CC(C)(C)c1cc(NC(=O)Nc2cnc(Oc3ccc(-c4cnc(N5CCCC5=O)s4)cc3)nc2)n(C2CCOCC2)n1 [Example 80-2, 1-[3-(2-methyl-2-propanyl)-1-(tetrahydro-2 H-pyran-4-yl)-1H-pyrazol-5-yl]-3-(2-{4-[2-(2-oxo-1-pyrrolidinyl)-1,3-thiazol-5-yl]phenoxy}-5-pyrimidinyl)urea] | 0.07 |  |
| CC(C)c1ncc(C(F)(F)F)cc1NC(=O)Nc1cnc(Oc2ccc(-c3cnc(N4CCCC4=O)s3)cc2)nc1 [Example 84-41, 1-[2-isopropyl-5-(trifluoromethyl)-3-pyridinyl]-3-(2-{4-[2-(2-oxo-1-pyrrolidinyl)-1,3-thiazol-5-yl]phenoxy}-5-pyrimidinyl)urea] | 0.09 |  |
